Reference: patent US20050026873A1, “Type-I methionyl aminopeptidases inhibitors in antibacterial targeting” (priority 2003, published 2005)
Peptide text beside a SMILES is read from it.

Assays:
EcMetAP-I [1] = molecular target: T1, EcMetAP-I (Escherichia coli, UniProt P0AE18); assay: DTNB inactivation of EcMetAP-I, hydrolysis of MP-p-NA; assay type: biochemical, E. coli; details: 200 μM DTNB, Co(II)-loaded EcMetAP-I, strict anaerobic conditions, pH 7.5, MP-p-NA hydrolysis
T1 sequence (P0AE18 1-264): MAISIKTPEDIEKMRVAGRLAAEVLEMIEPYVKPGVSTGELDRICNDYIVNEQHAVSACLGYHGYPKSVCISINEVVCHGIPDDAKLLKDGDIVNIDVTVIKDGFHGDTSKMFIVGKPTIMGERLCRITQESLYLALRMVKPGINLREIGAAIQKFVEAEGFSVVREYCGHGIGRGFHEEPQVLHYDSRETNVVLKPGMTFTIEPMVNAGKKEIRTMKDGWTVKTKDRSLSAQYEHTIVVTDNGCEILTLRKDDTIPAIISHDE
Protocol: In order to determine if Cys59 and Cys70 are involved in substrate recognition and binding, it was examined if the cysteine-specific chemical modification reagent, 5,5′-dithio-bis(2-nitrobenzoic acid) (DTNB) inhibits the hydrolysis of methionylprolyl-p-nitroanilide (MP-p-NA) by EcMetAP. A 200 μM solution of DTNB was prepared in 50 mM HEPES buffer, pH 7.5, […] and added to a […] sample of Co(II)-loaded EcMetAP-I under strict anaerobic conditions.

C70A EcMetAP [2] = molecular target: T2, C70A EcMetAP (Escherichia coli, UniProt P0AE18, C70A); assay: DTNB inactivation of C70A mutant enzyme; assay type: biochemical, E. coli; details: compared with wild-type
T2 construct: made in house
Protocol: (§1) Since at least one surface accessible cysteine residue, in addition to Cys59 and Cys70, exists in EcMetAP-I, reaction of DTNB with other residues cannot be ruled out. In order to circumvent this problem, both the C59A and C70A EcMetAP-I mutant enzymes were prepared and purified using the QuikChange Site-directed Mutagenesis Kit (Stratagene) and each mutation was verified by nucleotide sequencing. Both mutant enzymes bind one equivalent of Co(II) or Fe(II) tightly, based on ICP-AES analysis, which is identical to wild-type EcMetAP, and their kinetic parameters are listed below. […] Moreover, the Km values for both Co(II)— and Fe(II)-loaded EcMetAP C59A and C70A double and quadruple, respectively.

HsMetAP type-II enzyme = HsMetAP type-II enzyme (Homo sapiens, UniProt P50579); assay: DTNB effect on catalytic activity of HsMetAP type-II; assay type: biochemical; details: 200 μM DTNB
C59A EcMetAP [3] = molecular target: T3, C59A EcMetAP (Escherichia coli, UniProt P0AE18, C59A); assay: DTNB inactivation of C59A mutant enzyme; assay type: biochemical, E. coli; details: 10 μM DTNB
T3 construct: made in house
Protocol: as §1

PjMetAP-II [4] = molecular target: T4, PjMetAP-II (Pyrococcus furiosus, UniProt P56218); assay: DTNB inactivation of type-II MetAP, identical experiments; assay type: biochemical; details: even after several hours
wild-type EcMetAP-I = molecular target: T5, wild-type EcMetAP-I (Escherichia coli, UniProt P0AE18); assay: Reaction of wild-type EcMetAP-I with Inhibitor 1 and Inhibitor 2, catalytic activity; assay type: biochemical, E. coli; details: reaction for up to 12 hours
T5 sequence (P0AE18 1-264): T1 sequence (P0AE18 1-264)
Protocol: (§2) Since only C59 appears to be accessible for covalent modification, two potential inhibitors (Inhibitor 1 and Inhibitor 2, as depicted in FIG. 10) were prepared based on molecular modeling, one of which contains a good leaving group (I^−) and should be susceptible to nucleophilic attack while the second will not undergo nucleophilic addition.

PjMetAP-II [5] = molecular target: T4, PjMetAP-II; assay: Reaction of type-II MetAP with Inhibitor 1 and Inhibitor 2, catalytic activity; assay type: biochemical; details: reaction for up to 12 hours
Protocol: as §2

C59A EcMetAP [6] = molecular target: T3, C59A EcMetAP; assay: Kinetic constants towards MGMM, C59A mutant; assay type: biochemical, E. coli; details: 30° C., pH 7.5
Protocol: as §1

C70A EcMetAP [7] = molecular target: T2, C70A EcMetAP; assay: Kinetic constants towards MGMM, C70A mutant; assay type: biochemical, E. coli; details: 30° C., pH 7.5
Protocol: as §1

EcMetAP-I [8] = molecular target: T1, EcMetAP-I; assay: MALDI-TOF analysis of EcMetAP-I with and without Inhibitor 1; assay type: binding, E. coli
Protocol: Matrix-Assisted Laser Desorption Ionization-Time of Flight (MALDI-TOF) spectrometric analysis was performed on EcMetAP-I in both the presence and absence of Inhibitor 1.

[9] = substrate: CSCC[C@H](NC(=O)[C@H](CCSC)NC(=O)CNC(=O)[C@@H](N)CCSC)C(=O)O; assay: Kinetic constants towards MGMM, wild-type enzyme; assay type: biochemical, E. coli; details: 30° C., pH 7.5
Protocol: as §1

Question: How did the “time until EcMetAP was completely inactive after addition of DTNB” value (EcMetAP-I [1]) turn out when O=C(O)c1cc(SSc2ccc([N+](=O)[O-])c(C(=O)O)c2)ccc1[N+](=O)[O-] [DTNB, 5,5′-dithio-bis(2-nitrobenzoic acid)] was run?
Answer: 50 min

Question: And the observed inactivation rate (C70A EcMetAP [2])?
Answer: identical to wild-type enzyme

Question: What about the “loss in catalytic activity” value (HsMetAP type-II enzyme) of the same molecule?
Answer: no loss in catalytic activity

Question: And the inactivation rate (C59A EcMetAP [3]; compared with wild-type)?
Answer: slower rate

Question: What about the “inactivation of the catalytic activity” value (C59A EcMetAP [3]; strict anaerobic conditions) of the same molecule?
Answer: complete inactivation

Question: What about the “inactivation due to DTNB” value (PjMetAP-II [4]) of the same molecule?
Answer: no inactivation

Question: For O=C(O)CCCCCP(=O)(O)O [Inhibitor 2, 6-phosphonhexanoic acid], which “effect on catalytic activity of EcMetAP-I” value (wild-type EcMetAP-I) is on record?
Answer: did not significantly alter

Question: What about the “inhibition of type-II MetAP” value (PjMetAP-II [5]) of the same molecule?
Answer: not significantly inhibited

Question: For CSCC[C@H](NC(=O)[C@H](CCSC)NC(=O)CNC(=O)[C@@H](N)CCSC)C(=O)O [MGMM] (H-MGMM-OH), which Km (C59A EcMetAP [6]; Co(II)-loaded) is on record?
Answer: 6.4 ± 0.2 mM

Question: And the Km (C59A EcMetAP [6]; Fe(II)-loaded)?
Answer: 8 ± 0.2 mM

Question: And the Km (C70A EcMetAP [7]; Co(II)-loaded)?
Answer: 10 ± 0.2 mM

Question: And the Km (C70A EcMetAP [7]; Fe(II)-loaded)?
Answer: 11 ± 0.2 mM

Question: O=P(O)(O)CCCCI [Inhibitor 1, 4-iodobutylphosphonic acid] was tested. Which “effect on catalytic activity of EcMetAP-I” value (wild-type EcMetAP-I) did it give?
Answer: complete and irreversible loss in catalytic activity

Question: What about the “inhibition of type-II MetAP” value (PjMetAP-II [5]) of the same molecule?
Answer: not significantly inhibited

Question: And the “shift in mass peak of EcMetAP-I upon reaction (addition)” value (EcMetAP-I [8]; MALDI-TOF, enzyme alone 29,500±10)?
Answer: 140 mass units

Question: And the “mode of binding to EcMetAP-I” value (EcMetAP-I [8]; via C59, concluded from MALDI-TOF)?
Answer: covalently bound

B1: wild-type EcMetAP (Escherichia coli K-12) (protein)
chain: T1 sequence (P0AE18 1-264)
Question: How did the Km ([9]; other: Co(II)-loaded) turn out when B1 was run?
Answer: 3.2 ± 0.1 mM

Question: What about the Vmax ([9]; other: Co(II)-loaded) of the same molecule?
Answer: 39 µmol/min/mg

Question: And the kcat ([9]; other: Co(II)-loaded)?
Answer: 19.5 s⁻¹

Question: And the kcat/Km ([9]; other: Co(II)-loaded)?
Answer: 6100 M⁻¹ s⁻¹

Question: What about the Km ([9]; other: Fe(II)-loaded) of the same molecule?
Answer: 2.0 ± 0.3 mM

Question: What about the Vmax ([9]; other: Fe(II)-loaded) of the same molecule?
Answer: 55 µmol/min/mg

Question: What about the kcat ([9]; other: Fe(II)-loaded) of the same molecule?
Answer: 28 s⁻¹

Question: What about the kcat/Km ([9]; other: Fe(II)-loaded) of the same molecule?
Answer: 14000 M⁻¹ s⁻¹
